The source of these data is patent US20070286886A1, “Materials And Methods For Inducing Apoptosis In Adipocytes” (University of Tennessee Research Foundation, priority 2004, published 2007).

The assay relates to Bcl-2/Bax. The assay is described as follows: Bcl-2/Bax expression ratio by real-time PCR in 3T3-L1 and UCP2-transfected 3T3-L1 adipocytes. In kind it is cell-based. As to conditions: 24 h, P<0.01. Here is the method: 3T3-L1 preadipocytes were incubated at a density of 8000 cells/cm2 (10 cm2 dish) and grown in Dulbecco's modified Eagle's medium (DMEM) containing 10% FBS and antibiotics (adipocyte medium) at 37° C. in 5% CO2 in air. Confluent preadipocytes were induced to differentiate with a standard differentiation medium consisting of DMEM-F10 (1:1, vol/vol) medium supplemented with 1% FBS, 1 μM dexamethasone, IBMX (0.5 mM), and antibiotics (1% penicillin-streptomycin). Preadipocytes were maintained in this differentiation medium for 3 days and subsequently cultured in adipocyte medium. Cultures were re-fed every 2-3 days to allow 90% cells to reach full differentiation before they were chemically treated. Chemicals were freshly diluted in adipocyte medium before treatment. Cells were washed with fresh adipocyte medium, re-fed with medium containing the different treatments, and incubated at 37° C. in 5% CO2 in air before analysis. Cell viability was measured via trypan blue exclusion.
UCP2 full-length cDNAs were amplified by […] using mRNAs isolated from mouse white adipose tissues. The PCR primers for this amplification are shown as follows: UCP2 forward, 5′-[…]-3′, reverse, 5′-[…]-3′. The PCR products were then subcloned into pcDNA4/His expression vectors. The linearized constructs were transfected into 3T3-L1 preadipocytes using lipofectamine plus standard protocol (Invitrogen, Carlsbad, Calif.). After 48 h of transfection, cells were split and cultured in selective medium containing 400 ug/ml zeocin for the selection of resistant colonies. […]
Adipocyte caspase-1, caspase-3, Bcl-2, and Bax mRNA were quantitatively measured using a Smart Cycler Real Time PCR System (Cepheid, Sunnyvale, Calif.) with a TaqMan 1000 Core Reagent Kit (Applied Biosystems, Branchburg, N.J.). […] Reactions of quantitative RT-PCR for standards and unknown samples were Cepheid, Sunnyvale, Calif.) and TaqMan Real Time PCR Core Kit. The mRNA quantitation for each sample was further normalized using the corresponding 18 s quantitation, with a forward primer, 5′-[…]-3′, and a reverse primer, 5′-[…]-3′.

Each structure is given as a SMILES string.

Regarding `C=C1/C(=C\C=C2/CCC[C@]3(C)[C@@H]([C@H](C)CCCC(C)(C)O)CC[C@@H]23)C[C@@H](O)C[C@@H]1O` [1α,25-(OH)2-D3, 1α,25-dihydroxyvitamin D3], the Bcl-2/Bax expression ratio entry is reported as “significant decrease” (high dose 100 nM, control and UCP2-transfected 3T3-L1 cells); “dose-dependent increase” (lower levels (0.1-10 nM)).
